Results reported in patent US10301277B2, “Substituted ureas and methods of treating mental illness using the same” (ZHEJIANG JINGXIN PHARMACEUTICAL CO., LTD., priority 2016, dated 2019).
pKi: −log10 of the molar value. Read-outs that look alike come from different tables or passages of the source.

What was measured:
Dopamine D2 receptor = molecular target: T1, Dopamine D2 receptor (Homo sapiens, UniProt P14416); test: Dopamine D2 receptor binding assay; settings: [3H] Spiperone, HEK293 cells expressing D2 receptor
T1 construct: expressed in transfected cells
Experimental: (§1) This test was carried out according to the dopamine D2/D3 receptor binding assay and the 5-HT1A receptor binding assay described in Jiangsu Hengyi Pharmaceutical Co., Ltd.'s Patent CN 103130737 A. IC50 values were calculated from concentration-dependent reactions using a non-linear analysis program. Ki values were calculated from IC50 values by using Cheng-Prussoff equation, i.e. Ki=IC50/(1+[L]/KD), wherein Ki is the affinity of the drug to the receptor; […]; and KD is the affinity of radioligand to the receptor.
(I) Dopamine D2 Receptor Binding Assay
• a. Transfection of D2 Receptor Cells: by using calcium phosphate method, HEK293 cells were transfected with a plasmid vector containing the D2 receptor protein gene. The transfected cells were cultured in a culture solution containing G418, followed by a selection of monoclonal cell and radioligand binding assay, finally obtaining a stable cell line with stable expression of D2 receptor protein. • b. Materials for receptor binding assay: isotope ligand [^3H] Spiperone (113.0 Ci/mmol); available from Sigma-Aldrich Company; (+) spiperone, available from RBI company; GF/B glass fiber filter paper, available from Whatman Company; Tris imported and packaged; PPO, POPOP, available from Shanghai Reagent Chemical Company; lipid-soluble scintillation solution; and Beckman LS-6500 Multi-function Liquid Scintillation Counter. ii. Test Method • a. Treatment of cells: HEK-293 cells were infected with various recombinant viruses of the above genes, respectively, and the receptor proteins were highly expressed on the membranes after 48-72 hours. The cells were centrifuged at 1000 rpm for 5 minutes. The culture solution was discarded, and the cells were collected and stored in a refrigerator at −20° C. for standby. The cells were resuspended with Tris-HCl buffer (pH=7.5) when tested. • b. Competitive binding assay for receptor
The compound to be tested and the radio ligand, both 20 μL, and 160 μL of receptor proteins were added to the reaction test tubes to achieve a final concentration of 10 μmol/L for each of the compound to be tested and positive control, incubated in a water bath of 30° C. for 50 minutes and immediately transferred to an ice bath to terminate the reaction; placed on a Millipore cell sample collector, filtered by suction rapidly through a […] glass fiber filter, and eluted with 3 mL of eluent (50 mM Tris-HCl, pH7.5) for three times and dried with microwave for 5-6 minutes. The filter paper was transferred into a 0.5 mL centrifuge tube to which 500 μL of lipid-soluble scintillation solution was added, and settled away from light for more than 30 minutes. The radioactive intensity was determined by counting. The concentration of the compound was 10 μmol/L, and inhibition rate (%) of each compound to the binding of isotope ligands was calculated according to the following equation: Inhibition rate (I%)=(total binding tube cpm−compound cpm)/(total binding tube cpm—non-specific binding tube cpm)×100%. (II) Dopamine D3 Receptor Binding Assay

Dopamine D3 receptor = Dopamine D3 receptor (Homo sapiens, UniProt P35462); test: Dopamine D3 receptor binding assay
Experimental: as §1
The concentration of the compound was 10 μmol/L, and the assay was performed according to the method described in Journal of Pharmacology and Experimental Therapeutics 2010, 333 (1): 328.

5-HT1A receptor = molecular target: T2, 5-HT1A receptor (Homo sapiens, UniProt P08908); test: 5-HT1A receptor binding assay; settings: [3H] 8-OH-DPAT, HEK-293 cells expressing 5-HT1A receptor
T2 construct: expressed in transfected cells
T2 sequence (P08908 1-422): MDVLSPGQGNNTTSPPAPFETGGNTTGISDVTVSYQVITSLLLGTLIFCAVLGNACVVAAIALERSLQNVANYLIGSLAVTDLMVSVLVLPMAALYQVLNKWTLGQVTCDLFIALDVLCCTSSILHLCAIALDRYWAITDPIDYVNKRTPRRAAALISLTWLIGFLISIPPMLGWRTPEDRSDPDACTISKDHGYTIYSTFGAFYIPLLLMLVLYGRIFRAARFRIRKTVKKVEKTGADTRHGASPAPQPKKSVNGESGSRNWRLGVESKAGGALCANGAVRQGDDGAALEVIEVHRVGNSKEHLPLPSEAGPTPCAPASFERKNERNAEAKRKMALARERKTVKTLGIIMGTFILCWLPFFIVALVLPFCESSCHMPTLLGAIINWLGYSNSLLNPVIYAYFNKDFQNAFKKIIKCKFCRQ
Experimental: as §1
(III) 5-HT1A Receptor Binding Assay
5-HT1A receptor isotope ligand [^3H] 8-OH-DPAT (available from PE Company); (+)5-hydroxytrptamine (available from Sigma Company); GF/B glass fiber filter paper (available from Whatman Company); lipid-soluble scintillation solution: PPO, POPOP (available from Shanghai Chemical Reagent Company); toluene (from Sinopharm Chemical Reagent Co., Ltd.); Tris imported and packaged.
Treatment of cells: HEK-293 cells which stably express the 5-HT1A receptor by gene recombination were cultured in DMEM+10% serum solution for 3-5 days and then collected with PBS. The cells were centrifuged at 3000 rpm and […] for 10 minutes. Afterwards, the supernate was discarded, and the cells were collected and stored in a refrigerator at −80° C. The cells were resuspended with D1 Binding Buffer (pH 7.4) when tested.
Inhibition rate of each compound of 10 umol/L to the binding of [^3H]8-OH-DPAT and the 5-HT1A receptor was determined by a general selection.

[1] = test system: MK-801-induced schizophrenia model; test: MK-801-induced schizophrenia model, open field running behavior; type: in vivo, Sprague-Dawley rats; settings: for inhibition of high spontaneous activity of MK-801-induced rats: dose of 0.3 mg/kg, compared with MK-801 model control; for Total Distance within 61-150 minutes / Improvement Rate: single oral administration 0.3 mg/kg; for Total Distance within 61-150 minutes: MK-801 0.3 mg/kg i.p., x ± SD; for Improvement Rate: versus MK-801 model control
Experimental: (I) Modeling of MK-801-Induced Schizophrenia in Mice
Each rat was placed in a soundproof box for 30 minutes on the day before the test to adapt. On the next day, each rat was administrated with the respective test compounds, and after 30 minutes, administrated intraperitoneally with a 0.3 mg/kg MK-801 solution at 5.0 mL/kg body weight of the rat to build a model of MK-801-induced schizophrenia in mice.
(II) Observation of Open Field Running Behavior
Mice were administered with MK-801 and then immediately placed in the soundproof box. The total distances of motion of mice within 2.5 hours were observed and recorded. Improvement rate=(total distance of model control−total distance of administration)/(total distance of model control)×100%. (III) Statistical Method
All the data was expressed with x±SD and processed by SPSS17.0 software statistical package. T-test and one-way analysis of variance were performed to compare the mean of two samples, with P<0.05 as significant difference.

[2] = Acute toxicity assay, single oral administration; settings: ICR, mouse, in vivo
Experimental: Acute Toxicity Assay of the Cyclohexane Derivatives of the Present Invention
ICR mice orally administered with the compounds of the present invention were evaluated and their toxicity symptoms after oral administration were observed, as well as the mortality, which was calculated by Bliss method, thus the acute toxicities were compared.
• i. Preparation of solvent: Tween-80 of an appropriate amount was diluted with deionized water to a concentration of […] (g/v) Tween-80. • ii. […]. Administration: the test compound and solvent medium control groups (0.5% Tween-80) were administered orally.
Observations include but are not limited to: general condition, behavior, gait, eyes, mouth, nose, gastrointestinal tract, skin and hair and urogenital tract.

[3] = single oral administration, Bliss method, read-out: LD50

Sequence of Dopamine D3 receptor (P35462 whole entry, species assumed): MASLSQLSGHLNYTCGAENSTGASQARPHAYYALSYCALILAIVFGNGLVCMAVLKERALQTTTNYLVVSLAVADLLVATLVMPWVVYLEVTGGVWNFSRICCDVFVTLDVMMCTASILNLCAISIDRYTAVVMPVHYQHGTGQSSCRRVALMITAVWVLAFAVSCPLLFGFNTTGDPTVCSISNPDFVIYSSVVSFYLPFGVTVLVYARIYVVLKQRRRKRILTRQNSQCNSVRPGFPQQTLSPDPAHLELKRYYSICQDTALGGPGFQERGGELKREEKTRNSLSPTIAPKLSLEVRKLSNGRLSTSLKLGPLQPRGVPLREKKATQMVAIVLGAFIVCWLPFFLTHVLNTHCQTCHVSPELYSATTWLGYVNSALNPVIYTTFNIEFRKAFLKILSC
T1 sequence (P14416 whole entry, species assumed): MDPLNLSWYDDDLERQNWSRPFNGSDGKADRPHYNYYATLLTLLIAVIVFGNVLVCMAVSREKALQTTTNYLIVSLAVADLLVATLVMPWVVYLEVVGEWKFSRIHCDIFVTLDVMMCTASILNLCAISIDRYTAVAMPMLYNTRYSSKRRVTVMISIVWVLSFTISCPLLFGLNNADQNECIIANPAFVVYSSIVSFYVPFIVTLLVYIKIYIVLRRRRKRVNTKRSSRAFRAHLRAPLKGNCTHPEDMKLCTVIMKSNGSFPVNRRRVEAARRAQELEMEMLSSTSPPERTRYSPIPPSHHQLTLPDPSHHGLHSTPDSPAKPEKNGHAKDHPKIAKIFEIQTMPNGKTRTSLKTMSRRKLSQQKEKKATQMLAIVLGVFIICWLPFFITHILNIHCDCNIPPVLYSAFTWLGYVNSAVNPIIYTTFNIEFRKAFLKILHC

| SMILES | pKi (Dopamine D2 receptor) | pKi (Dopamine D3 receptor) | pKi (5-HT1A receptor) | inhibition of high spontaneous activity of MK-801-induced rats [1] | Total Distance within 61-150 minutes [1] [m] | Improvement Rate [1] [%] | other results |
| --- | --- | --- | --- | --- | --- | --- | --- |
| CN(C)C(=O)N[C@H]1CC[C@H](CCN2CCN(c3cccc4ccsc34)CC2)CC1 [drawing 29] | < 6.00 | 10.22 | 8.41 | – | – | – | – |
| CN(C)C(=O)N[C@H]1CC[C@H](CCN2CCC(c3noc4cc(F)ccc34)CC2)CC1 [drawing 34] | < 6.00 | 9.82 | 8.44 | – | – | – | – |
| CN(C)C(=O)N[C@H]1CC[C@H](CCN2CCN(c3cccc4cscc34)CC2)CC1 [Compound 3, N′-[trans-4-[2-[4-(benzo[c]thiophene)-7-piperazinyl]ethyl]cyclohexyl]-N,N-dimethylurea] | – | – | – | significantly inhibit | 63.79 ± 10.8 | 79.41 | – |
| CN(C)C(=O)N[C@H]1CC[C@H](CCN2CCN(c3ccc4c(Cl)noc4c3)CC2)CC1 [Compound 6, N′-[trans-4-[2-[4-(3-chloro-benzo[d]isoxazol)-6-piperazinyl]ethyl]cyclohexyl]-N,N-dimethylurea] | – | – | – | significantly inhibited | 171.78 ± 13.0 | 12.27 | – |
| Cc1ccc2c(N3CCN(CC[C@H]4CC[C@H](NC(=O)N(C)C)CC4)CC3)noc2c1 [Compound 14, N′-[trans-4-[2-[4-(6-methyl-benzo[d]isoxazol)-4-piperazinyl]ethyl]cyclohexyl]-N,N-dimethylurea] | – | – | – | significantly inhibited | 150.28 ± 11.70 | 51.49 | – |
| CN(C)C(=O)N[C@H]1CC[C@H](CCN2CCN(c3nsc4ccccc34)CC2)CC1 [Compound 4, N′-[trans-4-[2-[4-(benzo[d]isothiazolyl)-3-piperazinyl]ethyl]cyclohexyl]-N,N-dimethylurea] | – | – | – | – | 232.18 ± 20.3 | 25.05 | – |
| CN(C)C(=O)N[C@H]1CC[C@H](CCN2CCN(c3cccc4sccc34)CC2)CC1 [drawing 31] | < 6.00 | 10.22 | 8.40 | – | – | – | – |
| CN(C)C(=O)N[C@H]1CC[C@H](CCN2CCN(c3cccc4ccsc34)CC2)CC1 [Compound 2, N′-[trans-4-[2-[7-(benzo[b]thiophene)-7-piperazinyl]ethyl]cyclohexyl]-N,N-dimethylurea] | – | – | – | significantly inhibit | 46.95 ± 10.3 | 84.84 | – |
| CN(C)C(=O)N[C@H]1CC[C@H](CCN2CCN(c3cccc4cscc34)CC2)CC1 [drawing 30] | 6.01 | 10.15 | 8.43 | – | – | – | – |
| CN(C)C(=O)N[C@H]1CC[C@H](CCN2CCN(c3cccc4sccc34)CC2)CC1 [Compound 1, N′-[trans-4-[2-[4-(benzo[b]thiophene)-7-piperazinyl]ethyl]cyclohexyl]-N,N-dimethylurea] | – | – | – | significantly inhibit | 73.09 ± 11.7 | 76.41 | – |
| CN(C)C(=O)N[C@H]1CC[C@H](CCN2CCN(c3noc4cc(F)ccc34)CC2)CC1 [drawing 32] | 8.89 | 9.54 | 8.39 | – | – | – | – |
| CN(C)C(=O)N[C@H]1CC[C@H](CCN2CCN(c3cccc(Cl)c3Cl)CC2)CC1 [Cariprazine, reference compound] | – | – | – | significantly inhibited | 168.25 ± 26.9 | 45.69 | total distances of the rats within 150 minutes compared with MK-801 model control ([1]; 0.3 mg/kg): decreased; LD50 at 6 days ([2]; po): 75.3 mg/kg |
| CN(C)C(=O)N[C@H]1CC[C@H](CCN2CCN(c3cccc4ccsc34)CC2)CC1 [drawing 35] | – | – | – | – | – | – | LD50 at 6 days [2, 3]: 1100 mg/kg |
| CN(C)C(=O)N[C@H]1CC[C@H](CCN2CCN(c3noc4cc(F)ccc34)CC2)CC1 [Compound 5, N′-[trans-4-[2-[4-(6-fluoro-benzo[d]isoxazol)-3-piperazinyl]ethyl]cyclohexyl]-N,N-dimethylurea] | – | – | – | significantly inhibit | 5.43 ± 1.7 | 98.25 | – |
| CN(C)C(=O)N[C@H]1CC[C@H](CCN2CCN(c3ccc4c(Cl)noc4c3)CC2)CC1 [drawing 33] | 6.60 | 9.24 | 7.64 | – | – | – | – |
| CN(C)C(=O)N[C@H]1CC[C@H](CCN2CCN(c3cccc4sccc34)CC2)CC1 [drawing 37] | – | – | – | – | – | – | LD50 at 6 days [2, 3]: 1080 mg/kg |
| CN(C)C(=O)N[C@H]1CC[C@H](CCN2CCC(c3noc4cc(F)ccc34)CC2)CC1 [Compound 7, N′-[trans-4-[2-[4-(6-fluoro-benzo[d]isoxazol)-3-piperidyl]ethyl]cyclohexyl]-N,N-dimethylurea] | – | – | – | significantly inhibited | 160.82 ± 12.91 | 48.09 | – |
| CN(C)C(=O)N[C@H]1CC[C@H](CCN2CCN(c3cccc4cscc34)CC2)CC1 [drawing 36] | – | – | – | – | – | – | LD50 at 6 days [2, 3]: 1050 mg/kg |
